Experimental data as given in ChEMBL document CHEMBL3885881, “DrugMatrix”.

Species on record: Rattus norvegicus
Assay: DrugMatrix - Regimen: Daily Repeat
Type: toxicity, organism-based, Sprague-Dawley
Set-up: regimen Daily Repeat, gender Male, age 6-8 weeks
Conditions: in vivo, po, […], route oral GAVAGE; for BASOPHIL / EOSINOPHIL / ERYTHROCYTE COUNT / HEMATOCRIT / HEMOGLOBIN / LEUKOCYTE COUNT / LYMPHOCYTE / MEAN CORPUSCULAR HEMOGLOBIN / MEAN CORPUSCULAR HEMOGLOBIN CONCENTRATION / MEAN CORPUSCULAR VOLUME / MONOCYTE / NEUTROPHIL / PLATELET COUNT / ABSOLUTE BASOPHIL / ABSOLUTE EOSINOPHIL / ABSOLUTE LYMPHOCYTE / ABSOLUTE MONOCYTE / ABSOLUTE SEGMENTED NEUTROPHIL / NUCLEATED RED BLOOD CELLS: tissue Blood; for ALANINE AMINOTRANSFERASE / ALBUMIN / ALKALINE PHOSPHATASE / ASPARTATE AMINOTRANSFERASE / BLOOD UREA NITROGEN / CHLORIDE / CHOLESTEROL / CREATINE PHOSPHOKINASE / CREATININE / GLUCOSE / PHOSPHORUS / POTASSIUM / SODIUM / TOTAL BILIRUBIN / TOTAL PROTEIN / CARBON DIOXIDE / LACTATE DEHYDROGENASE / LIPASE / URIC ACID: tissue Plasma
[1] = 11 mg/kg, dose level High, time 28 day
[2] = 72 h, dose 2.5 mg/Kg, dose level Low, time 3 day
[3] = 120 h, dose 2.5 mg/Kg, dose level Low, time 5 day

Which results are given for `O=[N+]([O-])c1cc([As](=O)(O)O)ccc1O` [ROXARSONE]?
BASOPHIL [1]: 0.47%; EOSINOPHIL [1]: 0.51%; ERYTHROCYTE COUNT [1]: 8.5 x10E6/uL; HEMATOCRIT [1]: 51.09%; HEMOGLOBIN [1]: 16.79 G/DL; LEUKOCYTE COUNT [1]: 12.9 x10E3/uL; LYMPHOCYTE [1]: 81.69%; MEAN CORPUSCULAR HEMOGLOBIN [1]: 19.74 pg; MEAN CORPUSCULAR HEMOGLOBIN CONCENTRATION [1]: 32.83 G/DL; MEAN CORPUSCULAR VOLUME [1]: 60.14 fL; MONOCYTE [1]: 1.78%; NEUTROPHIL [1]: 14.18%; PLATELET COUNT [1]: 1300.33 x10E3/uL; ALANINE AMINOTRANSFERASE [1]: 30.56 u/L; ALBUMIN [1]: 3.98 G/DL; ALKALINE PHOSPHATASE [1]: 205 u/L; ASPARTATE AMINOTRANSFERASE [1]: 60.78 u/L; BLOOD UREA NITROGEN [1]: 11.78 mg/dL; CHLORIDE [1]: 107.33 MEQ/L; CHOLESTEROL [1]: 57.22 mg/dL; CREATINE PHOSPHOKINASE [1]: 179.11 u/L; CREATININE [1]: 0.44 mg/dL; GLUCOSE [1]: 136.78 mg/dL; PHOSPHORUS [1]: 11.58 mg/dL; POTASSIUM [1]: 6.69 MEQ/L; SODIUM [1]: 152.22 MEQ/L; TOTAL BILIRUBIN [1]: 0.23 mg/dL; TOTAL PROTEIN [1]: 6.68 G/DL; ABSOLUTE BASOPHIL [2]: 0 CELLS/uL; ABSOLUTE EOSINOPHIL [2]: 0 CELLS/uL; ABSOLUTE LYMPHOCYTE [2]: 9950.67 CELLS/uL; ABSOLUTE MONOCYTE [2]: 307.67 CELLS/uL; ABSOLUTE SEGMENTED NEUTROPHIL [2]: 1408.33 CELLS/uL; BASOPHIL [2]: 0%; EOSINOPHIL [2]: 0%; ERYTHROCYTE COUNT [2]: 5.09 x10E6/uL; HEMATOCRIT [2]: 33.27%; HEMOGLOBIN [2]: 13.17 G/DL; LEUKOCYTE COUNT [2]: 11.67 x10E3/uL; LYMPHOCYTE [2]: 85.33%; MEAN CORPUSCULAR HEMOGLOBIN [2]: 25.9 pg; MEAN CORPUSCULAR HEMOGLOBIN CONCENTRATION [2]: 39.6 G/DL; MEAN CORPUSCULAR VOLUME [2]: 65.4 fL; MONOCYTE [2]: 2.67%; NEUTROPHIL [2]: 12%; NUCLEATED RED BLOOD CELLS [2]: 0 /100WBC; PLATELET COUNT [2]: 1052.67 x10E3/uL; ALANINE AMINOTRANSFERASE [2]: 79.33 u/L; ALBUMIN [2]: 4.07 G/DL; ALKALINE PHOSPHATASE [2]: 426.33 u/L; ASPARTATE AMINOTRANSFERASE [2]: 104 u/L; BLOOD UREA NITROGEN [2]: 11 mg/dL; CARBON DIOXIDE [2]: 22 mmol/L; CHLORIDE [2]: 103.67 MEQ/L; CHOLESTEROL [2]: 66.33 mg/dL; CREATINE PHOSPHOKINASE [2]: 289.33 u/L; CREATININE [2]: 0.18 mg/dL; GLUCOSE [2]: 163.33 mg/dL; LACTATE DEHYDROGENASE [2]: 290.33 u/L; LIPASE [2]: 12.33 u/L; PHOSPHORUS [2]: 11 mg/dL; POTASSIUM [2]: 6.16 MEQ/L; SODIUM [2]: 142.77 MEQ/L; TOTAL BILIRUBIN [2]: 0.2 mg/dL; TOTAL PROTEIN [2]: 5.47 G/DL; URIC ACID [2]: 1.57 mg/dL; ABSOLUTE BASOPHIL [3]: 0 CELLS/uL; ABSOLUTE EOSINOPHIL [3]: 60.33 CELLS/uL; ABSOLUTE LYMPHOCYTE [3]: 15548.33 CELLS/uL; ABSOLUTE MONOCYTE [3]: 0 CELLS/uL; ABSOLUTE SEGMENTED NEUTROPHIL [3]: 2058 CELLS/uL; BASOPHIL [3]: 0%; EOSINOPHIL [3]: 0.33%; ERYTHROCYTE COUNT [3]: 5.56 x10E6/uL; HEMATOCRIT [3]: 35.6%; HEMOGLOBIN [3]: 14.43 G/DL; LEUKOCYTE COUNT [3]: 17.67 x10E3/uL; LYMPHOCYTE [3]: 88%; MEAN CORPUSCULAR HEMOGLOBIN [3]: 26 pg; MEAN CORPUSCULAR HEMOGLOBIN CONCENTRATION [3]: 40.53 G/DL; MEAN CORPUSCULAR VOLUME [3]: 64.1 fL; MONOCYTE [3]: 0%; NEUTROPHIL [3]: 11.67%; NUCLEATED RED BLOOD CELLS [3]: 0.33 /100WBC; PLATELET COUNT [3]: 1233.67 x10E3/uL; ALANINE AMINOTRANSFERASE [3]: 63.33 u/L; ALBUMIN [3]: 4.23 G/DL; ALKALINE PHOSPHATASE [3]: 389.33 u/L; ASPARTATE AMINOTRANSFERASE [3]: 94 u/L; BLOOD UREA NITROGEN [3]: 13 mg/dL; CARBON DIOXIDE [3]: 32.33 mmol/L; CHLORIDE [3]: 100.67 MEQ/L; CHOLESTEROL [3]: 60.67 mg/dL; CREATINE PHOSPHOKINASE [3]: 298.67 u/L; CREATININE [3]: 0.18 mg/dL; GLUCOSE [3]: 151 mg/dL; LACTATE DEHYDROGENASE [3]: 370 u/L; LIPASE [3]: 11.67 u/L; PHOSPHORUS [3]: 10.73 mg/dL; POTASSIUM [3]: 6.25 MEQ/L; SODIUM [3]: 142.83 MEQ/L; TOTAL BILIRUBIN [3]: 0.2 mg/dL; TOTAL PROTEIN [3]: 6.03 G/DL; URIC ACID [3]: 1.77 mg/dL
